Experiment: Inhibition of Influenza A virus A/California/04/2009 (H1N1) N-terminal his tagged domain of PA endonuclease expressed in Escherichia coli BL21 (DE3) cells preincubated with enzyme for 1 hr followed by RNA addition and measured after 90 mins by MALDI-FTICR-MS analysis
With `COc1cnccc1CCNC(=O)c1nc(-c2cccc(C(F)(F)F)c2)[nH]c(=O)c1O` the IC50 was 4530 nM.
`COc1cnccc1CCNC(=O)c1nc(-c2ccccc2C(F)(F)F)[nH]c(=O)c1O` gave an IC50 of 420 nM.
In the case of `CC(C)(NC(=O)OCc1ccccc1)c1nc(C(=O)NCc2ccc(F)cc2)c(O)c(=O)[nH]1`, the IC50 is reported as greater than 20000 nM.
Work on `COc1cnccc1CCNC(=O)c1nc(-c2c(F)cccc2F)[nH]c(=O)c1O` yielded an IC50 of 1110 nM.
Molecule `COc1cc(CCNC(=O)c2nc(C(C)(C)NC(=O)OCc3ccccc3)[nH]c(=O)c2O)ccc1O` has an IC50 of 620 nM.
Molecule `COc1cnccc1CCNC(=O)c1nc(-c2ccccc2C)[nH]c(=O)c1O` has an IC50 of 390 nM.
For `O=C1NCCc2cccc(c2)OCCCCOc2cccc(c2)-c2nc1c(O)c(=O)[nH]2`, the IC50 was greater than 20000 nM.
Work on `COc1cnccc1CCNC(=O)c1nc(C(C)(C)NC(=O)OCc2ccccc2)[nH]c(=O)c1O` yielded an IC50 of 1970 nM.
With `COc1cnccc1CCNC(=O)c1nc(Cc2ccccc2C(F)(F)F)[nH]c(=O)c1O` the IC50 was greater than 20000 nM.
`O=C1c2c(O)c(=O)ccn2N([C@@H]2c3ccccc3SCc3c2ccc(F)c3F)C2COCCN12` (stereo partly drawn) gave an IC50 of 50 nM.
With `COc1cnccc1CCNC(=O)c1nc(-c2ccccc2F)[nH]c(=O)c1O` the IC50 was 820 nM.
With `CC(C)(NC(=O)OCc1ccccc1)c1nc(C(=O)NCCn2cnc3c(N)ncnc32)c(O)c(=O)[nH]1` the IC50 was 1620 nM.
`COc1cc(CCNC(=O)c2nc(-c3ccccc3C(F)(F)F)[nH]c(=O)c2O)ccc1O` gave an IC50 of 270 nM.
In the case of `Cc1nnc(C(=O)NC(C)(C)c2nc(C(=O)NCc3ccc(F)cc3)c(O)c(=O)n2C)o1` [RALTEGRAVIR], the IC50 is reported as greater than 20000 nM.
For `CC(C)(NC(=O)OCc1ccccc1)c1nc(O)c(O)c(C(=O)NCCc2ccc(F)cc2)n1`, the IC50 was 6450 nM.
Molecule `Nc1ncnc2c1ncn2CCNC(=O)c1nc(-c2ccccc2C(F)(F)F)[nH]c(=O)c1O` has an IC50 of 290 nM.
In the case of `COc1cnccc1CCNC(=O)c1nc(-c2ccccc2)[nH]c(=O)c1O`, the IC50 is reported as 1220 nM.
Molecule `COc1cnccc1CCNC(=O)c1nc(-c2ccc(C(F)(F)F)cc2)[nH]c(=O)c1O` has an IC50 greater than 20000 nM.
Work on `O=C1NCCc2cccc(c2)OC/C=C\COc2cccc(c2)-c2nc1c(O)c(=O)[nH]2` yielded an IC50 of 4960 nM.
`O=C1NCCc2cccc(c2)OC/C=C/COc2cccc(c2)-c2nc1c(O)c(=O)[nH]2` showed an IC50 of 12500 nM.

Experiment: Binding affinity to Influenza A virus A/California/04/2009 (H1N1) wild type N-terminal his tagged domain of PA endonuclease expressed in Escherichia coli BL21 (DE3) cells assessed as dissociation constant by MST assay
Molecule `COc1cnccc1CCNC(=O)c1nc(-c2ccccc2C(F)(F)F)[nH]c(=O)c1O` has a Kd of 54 nM.
`O=C1c2c(O)c(=O)ccn2N([C@@H]2c3ccccc3SCc3c2ccc(F)c3F)C2COCCN12` (stereo partly drawn) showed a Kd of 6 nM.
Molecule `Nc1ncnc2c1ncn2CCNC(=O)c1nc(-c2ccccc2C(F)(F)F)[nH]c(=O)c1O` has a Kd of 18 nM.

Source: ChEMBL document CHEMBL5331099, “Chemical scaffold recycling: Structure-guided conversion of an HIV integrase inhibitor into a potent influenza virus RNA-dependent RNA polymerase inhibitor designed to minimize resistance potential” (Eur J Med Chem, 2023)
